# Assay results from ChEMBL document CHEMBL1201862, “PubChem BioAssay data set” (2004).
#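 48-hour exposure; five concentrations; linearly interpolated endpoints. GI50 is the concentration that inhibits growth by half.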 Calls of active or inactive are those of the source. Rule as the data show it: active = GI50 up to about 1.1 µM and inactive = higher.
# Experiments:
# Experiment in all cases: DTP human tumour cell line panel, 48 h
# [1] = system: NCI/ADR-RES
# [2] = system: Hs-578T
# [3] = system: SNB-78
# [4] = system: XF498
# [5] = system: M19-MEL
# [6] = system: HOP-18
# [7] = system: DLD-1
# [8] = system: LXFL 529
Structure (SMILES),GI50 [1],GI50 [2],GI50 [3],GI50 [4],GI50 [5],GI50 [6],GI50 [7],GI50 [8]
CN(C)S(=O)(=O)Nc1ccccn1,> 100 µM (inactive),> 100 µM (inactive),,,,,,
O=C(O)C(Sc1ccc(Cl)cc1)Sc1ccc(Cl)cc1,47.3 µM (inactive),38.3 µM (inactive),,,,,,
O=C(O)CN1C(=O)CN=C(c2ccccn2)c2cc(Cl)ccc21,> 100 µM (inactive),> 100 µM (inactive),,,,,,
O=C1c2ccccc2C(=O)c2c(Nc3ccc4c5c(cccc35)C(=O)c3ccccc3-4)cccc21,> 100 µM (inactive),> 100 µM (inactive),,,,,,
COc1cc([C@H]2CC(=O)C[C@H](c3cc(OC)c(OC)c(OC)c3)C23C(=O)c2ccccc2C3=O)cc(OC)c1OC,> 100 µM (inactive),46.6 µM (inactive),,,,,,
C=C(C)CC(C(=O)O)c1ccc(C)cc1 (stereo not given),,,> 100 µM (inactive),> 100 µM (inactive),> 100 µM (inactive),> 100 µM (inactive),> 100 µM (inactive),
COC(C)C(O)(C(=O)OCC1=CCN2CCC(O)C12)C(C)(C)O (stereo not given),> 100 µM (inactive),> 100 µM (inactive),,,,,,
OCCCCCNc1ccnc2cc(Cl)ccc12,,,> 100 µM (inactive),> 100 µM (inactive),> 100 µM (inactive),> 100 µM (inactive),> 100 µM (inactive),> 100 µM (inactive)
NC(=O)/N=C1\NC(Cc2ccccc2)C(=O)N1Cc1ccccc1 (stereo not given),,,> 100 µM (inactive),35.6 µM (inactive),> 100 µM (inactive),,> 100 µM (inactive),> 100 µM (inactive)
CC(C)(C)OC/C=C1\C(=O)O[C@H]2C[C@@H](O[Si](C)(C)C(C)(C)C)C[C@@H]12,88.1 µM (inactive),,,,,,,
C#CCN(N=O)C(=O)NC(CCCNC(=O)OCc1ccccc1)C(=O)OCc1ccccc1 (stereo not given),,,> 100 µM (inactive),18 µM (inactive),> 100 µM (inactive),,57.1 µM (inactive),72.9 µM (inactive)
O=C(CCCN1CCC2(CC1)CC(=O)N(N1CCOCC1)C2=O)c1ccccc1,> 100 µM (inactive),,,,,,,
CC(=O)OCC1OC(n2c(C)c(C)cc(C#N)c2=S)C(OC(C)=O)C(OC(C)=O)C1OC(C)=O (stereo not given),,> 100 µM (inactive),,,,,,
O=C(O)/C=C(/C(=O)O)C12CCN3CC4=CCOC5CC(=O)NC1C5C4CC32 (stereo not given),> 100 µM (inactive),> 100 µM (inactive),,,,,,
CCOC(=O)c1cccc(/N=N/Nc2cccc(C(=O)OCC)c2)c1,56.9 µM (inactive),30.8 µM (inactive),,,,,,
CCN1C(=O)/C(=C\c2coc3ccccc3c2=O)SC1=S,,,56.8 µM (inactive),40 µM (inactive),> 100 µM (inactive),80.4 µM (inactive),> 100 µM (inactive),> 100 µM (inactive)
COc1cc(OC)c2nc3occc3c(OC)c2c1,> 100 µM (inactive),> 100 µM (inactive),,,,,,
N=C(N)N/N=C(\c1ccc(F)cc1)c1ccc(C(F)(F)F)cc1,0.344 µM (active),0.36 µM (active),,,,,,
COc1ccc(Nc2ccc3ccccc3c2-c2c(O)ccc3ccccc23)cc1,15.4 µM (inactive),,,,,,,
Sc1nnc(-c2ccccc2)n1/N=C\c1ccc(-c2ccc(Cl)cc2)o1,,,> 100 µM (inactive),,> 100 µM (inactive),,> 100 µM (inactive),> 100 µM (inactive)
O=C(c1ccccc1)c1nnc(C(=O)c2ccccc2)nn1,,,170 µM (inactive),,> 344 µM (inactive),> 344 µM (inactive),> 344 µM (inactive),266 µM (inactive)
CCOc1cccc2cccnc12,,,,> 100 µM (inactive),,57.5 µM (inactive),> 100 µM (inactive),> 100 µM (inactive)
Nc1ccc2c(c1)CC1c3ccccc3C(C2)c2ccccc21,,,> 100 µM (inactive),,> 100 µM (inactive),> 100 µM (inactive),> 100 µM (inactive),> 100 µM (inactive)
COc1cc(C)cc2c(-c3c(O)cc(O)c4c3C[C@H](C)N[C@H]4C)cc(-c3cc(-c4c(O)cc(O)c5c4C[C@H](C)N[C@H]5C)c4cc(C)cc(OC)c4c3O)c(O)c12,> 100 µM (inactive),> 100 µM (inactive),,,,,,
CNC(=O)NC(CCCCNC(=O)OCc1ccccc1)C(=O)OCc1ccccc1 (stereo not given),> 100 µM (inactive),79.8 µM (inactive),33.4 µM (inactive),15.2 µM (inactive),17 µM (inactive),,> 100 µM (inactive),33.9 µM (inactive)
COc1cc2c(cc1OC)C(=O)/C(=C/c1ccccc1)C2,> 66.2 µM (inactive),> 100 µM (inactive),,,,,,
